Values quoted from earlier work as cited in US20210155895A1, “Pluripotent Stem Cell-Derived 3D Retinal Tissue and Uses Thereof” (LINEAGE CELL THERAPEUTICS, INC., priority 2016, published 2021).
Each block holds one compound with its values, some of them ahead of it.

Assays:
[1] = system: PR (photoreceptor) cells
[2] = system: histone H3; conditions: Koriyama et al. 2014
[3] = system: PR (photoreceptors); conditions: zaprinast 100 μM

Compound: CN(N=O)C(N)=O [MNU, N-methyl, N-nitrosourea]
time to PR cell death after application [1]: ≤ 7 days
PR cell death ([1]; involving the caspase pathway): selective and progressive PR cell death

Compound: CCCC(CCC)C(=O)O [valproic acid]
effect on histone H3 acetylation [2]: induces histone H3 acetylation

effect on intracellular cGMP [3]: raises intracellular cGMP
Compound: CCCOc1ccccc1-c1nc2nn[nH]c2c(=O)[nH]1 [zaprinast]
PR degeneration [3]: induces PR degeneration at a level comparable to that observed in the mouse rd1 model
